Reference: patent US10213433B2 (AbbVie Inc., priority 2010, dated 2019)

molecular target: Bcl-2 protein (Homo sapiens (Human), UniProt P10415); test: Bcl-2 binding TR-FRET (Time-Resolved Fluorescence-Resonance-Energy-Transfer) assay; details: inhibition constant for binding to Bcl-2 protein
Excerpt: The smaller the Ki value, the greater is the binding affinity.

Bcl-2 protein, sequence (P10415 whole entry): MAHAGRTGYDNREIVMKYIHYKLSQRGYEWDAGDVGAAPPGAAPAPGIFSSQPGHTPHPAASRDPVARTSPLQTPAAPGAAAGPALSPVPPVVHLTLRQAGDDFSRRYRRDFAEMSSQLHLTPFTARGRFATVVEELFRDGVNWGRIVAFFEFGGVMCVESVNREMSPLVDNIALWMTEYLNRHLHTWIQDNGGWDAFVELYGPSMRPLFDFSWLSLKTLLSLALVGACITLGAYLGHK

SMILES	Ki
COCCOCCN1CC[C@@H](Nc2ccc(S(=O)(=O)NC(=O)c3ccc(N4CCN(CC5=C(c6ccc(Cl)cc6)CC(C)(C)CC5)CC4)cc3Oc3cnc4[nH]ccc4c3)cc2[N+](=O)[O-])C1 [Compound 254, 4-(4-{[2-(4-chlorophenyl)-4,4-dimethylcyclohex-1-en-1-yl]methyl}piperazin-1-yl)-N-{[4-({(3R)-1-[2-(2-methoxyethoxyl)ethyl]pyrrolidin-3-yl}amino)-3-nitrophenyl]sulfonyl}-2-(1H-pyrrolo[2,3-b]pyridin-5-yloxy)benzamide]	< 0.01 nM
CC(=O)N1CC[C@@H](Nc2ccc(S(=O)(=O)NC(=O)c3ccc(N4CCN(CC5=C(c6ccc(Cl)cc6)CC(C)(C)CC5)CC4)cc3Oc3cnc4[nH]ccc4c3)cc2[N+](=O)[O-])C1 [Compound 154, N-[(4-{[(3R)-1-acetylpyrrolidin-3-yl]amino}-3-nitrophenyl)sulfonyl]-4-(4-{[2-(4-chlorophenyl)-4,4-dimethylcyclohex-1-en-1-yl]methyl}piperazin-1-yl)-2-(1H-pyrrolo[2,3-b]pyridin-5-yloxy)benzamide]	< 0.01 nM
CC1(C)CCC(CN2CCN(c3ccc(C(=O)NS(=O)(=O)c4ccc(N[C@H]5CCCNC5=O)c([N+](=O)[O-])c4)c(Oc4cnc5[nH]ccc5c4)c3)CC2)=C(c2ccc(Cl)cc2)C1 [Compound 160, 4-(4-{[2-(4-chlorophenyl)-4,4-dimethylcyclohex-1-en-1-yl]methyl}piperazin-1-yl)-N-[(3-nitro-4-{[(3S)-2-oxopiperidin-3-yl]amino}phenyl)sulfonyl]-2-(1H-pyrrolo[2,3-b]pyridin-5-yloxy)benzamide]	< 0.01 nM
CC[C@]1(O)CC[C@H](CNc2ccc(S(=O)(=O)NC(=O)c3ccc(N4CCN(CC5=C(c6ccc(Cl)cc6)CC(C)(C)CC5)CC4)cc3Oc3cnc4[nH]ccc4c3)cc2[N+](=O)[O-])CC1 [Compound 359, 4-(4-{[2-(4-chlorophenyl)-4,4-dimethylcyclohex-1-en-1-yl]methyl}piperazin-1-yl)-N-[(4-{[(cis-4-ethyl-4-hydroxycyclohexyl)methyl]amino}-3-nitrophenyl)sulfonyl]-2-(1H-pyrrolo[2,3-b]pyridin-5-yloxy)benzamide]	< 0.01 nM
CCN1CCOCC1COc1ccc(S(=O)(=O)NC(=O)c2ccc(N3CCN(CC4=C(c5ccc(Cl)cc5)CC(C)(C)CC4)CC3)cc2Oc2cnc3[nH]ccc3c2)cc1[N+](=O)[O-] (stereo not shown) [Compound 103, 4-(4-{[2-(4-chlorophenyl)-4,4-dimethylcyclohex-1-en-1-yl]methyl}piperazin-1-yl)-N-({4-[(4-ethylmorpholin-3-yl)methoxy]-3-nitrophenyl}sulfonyl)-2-(1H-pyrrolo[2,3-b]pyridin-5-yloxy)benzamide]	< 0.01 nM
CC1(C)CCC(CN2CCN(c3ccc(C(=O)NS(=O)(=O)c4ccc(NCC5COCCO5)c([N+](=O)[O-])c4)c(Oc4cnc5[nH]ccc5c4)c3)CC2)=C(c2ccc(Cl)cc2)C1 (stereo not shown) [Compound 25, 4-(4-{[2-(4-chlorophenyl)-4,4-dimethylcyclohex-1-en-1-yl]methyl}piperazin-1-yl)-N-({4-[(1,4-dioxan-2-ylmethyl)amino]-3-nitrophenyl}sulfonyl)-2-(1H-pyrrolo[2,3-b]pyridin-5-yloxy)benzamide]	< 0.01 nM
COCCOCCS(=O)(=O)c1ccc(S(=O)(=O)NC(=O)c2ccc(N3CCN(CC4=C(c5ccc(Cl)cc5)CC(C)(C)CC4)CC3)cc2Oc2cnc3[nH]ccc3c2)cc1Cl [Compound 58, N-[(3-chloro-4-{[2-(2-methoxyethoxyl)ethyl]sulfonyl}phenyl)sulfonyl]-4-(4-{[2-(4-chlorophenyl)-4,4-dimethylcyclohex-1-en-1-yl]methyl}piperazin-1-yl)-2-(1H-pyrrolo[2,3-b]pyridin-5-yloxy)benzamide]	< 0.01 nM
CC(=O)N1CCCC(CNc2ccc(S(=O)(=O)NC(=O)c3ccc(N4CCN(CC5=C(c6ccc(Cl)cc6)CC(C)(C)CC5)CC4)cc3Oc3cnc4[nH]ccc4c3)cc2[N+](=O)[O-])C1 (stereo not shown) [Compound 148, N-[(4-{[(1-acetylpiperidin-3-yl)methyl]amino}-3-nitrophenyl)sulfonyl]-4-(4-{[2-(4-chlorophenyl)-4,4-dimethylcyclohex-1-en-1-yl]methyl}piperazin-1-yl)-2-(1H-pyrrolo[2,3-b]pyridin-5-yloxy)benzamide]	< 0.01 nM
CC1(C)CCC(CN2CCN(c3ccc(C(=O)NS(=O)(=O)c4ccc(OCC5(F)CCN(C6CCOCC6)CC5)c([N+](=O)[O-])c4)c(Oc4cnc5[nH]ccc5c4)c3)CC2)=C(c2ccc(Cl)cc2)C1 [Compound 192, 4-(4-{[2-(4-chlorophenyl)-4,4-dimethylcyclohex-1-en-1-yl]methyl}piperazin-1-yl)-N-({4-[(4-fluoro-1-tetrahydro-2H-pyran-4-ylpiperidin-4-yl)methoxy]-3-nitrophenyl}sulfonyl)-2-(1H-pyrrolo[2,3-b]pyridin-5-yloxy)benzamide]	< 0.01 nM
CC1(C)CCC(CN2CCN(c3ccc(C(=O)NS(=O)(=O)c4ccc(N[C@H]5CCN(C6CCOCC6)C5)c([N+](=O)[O-])c4)c(Oc4cnc5[nH]ccc5c4)c3)CC2)=C(c2ccc(Cl)cc2)C1 [Compound 132, 4-(4-{[2-(4-chlorophenyl)-4,4-dimethylcyclohex-1-en-1-yl]methyl}piperazin-1-yl)-N-[(3-nitro-4-{[(3S)-1-tetrahydro-2H-pyran-4-ylpyrrolidin-3-yl]amino}phenyl)sulfonyl]-2-(1H-pyrrolo[2,3-b]pyridin-5-yloxy)benzamide]	< 0.01 nM
CC1(C)CCC(CN2CCN(c3ccc(C(=O)NS(=O)(=O)c4ccc(OCC5(F)CCNCC5)c([N+](=O)[O-])c4)c(Oc4cnc5[nH]ccc5c4)c3)CC2)=C(c2ccc(Cl)cc2)C1 [Compound 127, 4-(4-{[2-(4-chlorophenyl)-4,4-dimethylcyclohex-1-en-1-yl]methyl}piperazin-1-yl)-N-({4-[(4-fluoropiperidin-4-yl)methoxy]-3-nitrophenyl}sulfonyl)-2-(1H-pyrrolo[2,3-b]pyridin-5-yloxy)benzamide]	< 0.01 nM
O=C(NS(=O)(=O)c1ccc(NCC2CN(C3CC3)CCO2)c([N+](=O)[O-])c1)c1ccc(N2CCN(CC3=C(c4ccc(Cl)cc4)CC4(CC3)CC4)CC2)cc1Oc1cnc2[nH]ccc2c1 (stereo not shown) [Compound 330, 4-(4-{[5-(4-chlorophenyl)spiro[2.5]oct-5-en-6-yl]methyl}piperazin-1-yl)-N-[(4-{[(4-cyclopropylmorpholin-2-yl)methyl]amino}-3-nitrophenyl)sulfonyl]-2-(1H-pyrrolo[2,3-b]pyridin-5-yloxy)benzamide]	< 0.01 nM
CC1(C)CCC(CN2CCN(c3ccc(C(=O)NS(=O)(=O)c4ccc(NCC5CCN(S(C)(=O)=O)C5)c([N+](=O)[O-])c4)c(Oc4cnc5[nH]ccc5c4)c3)CC2)=C(c2ccc(Cl)cc2)C1 (stereo not shown) [Compound 152, 4-(4-{[2-(4-chlorophenyl)-4,4-dimethylcyclohex-1-en-1-yl]methyl}piperazin-1-yl)-N-{[4-({[1-(methylsulfonyl)pyrrolidin-3-yl]methyl}amino)-3-nitrophenyl]sulfonyl}-2-(1H-pyrrolo[2,3-b]pyridin-5-yloxy)benzamide]	< 0.01 nM
CC1(C)CCC(CN2CCN(c3ccc(C(=O)NS(=O)(=O)c4ccc(NCC56CC7CC(C5)C(O)C(C7)C6)c([N+](=O)[O-])c4)c(Oc4cnc5[nH]ccc5c4)c3)CC2)=C(c2ccc(Cl)cc2)C1 (stereo not shown) [Compound 199, 4-(4-{[2-(4-chlorophenyl)-4,4-dimethylcyclohex-1-en-1-yl]methyl}piperazin-1-yl)-N-{[4-({[(E)-4-hydroxy-1-adamantyl]methyl}amino)-3-nitrophenyl]sulfonyl}-2-(1H-pyrrolo[2,3-b]pyridin-5-yloxy)benzamide]	< 0.01 nM
O=C(NS(=O)(=O)c1ccc(OCC2(F)CCOCC2)c([N+](=O)[O-])c1)c1ccc(N2CCN(CC3=C(c4ccc(Cl)cc4)CCC4(CCCC4)C3)CC2)cc1Oc1cnc2[nH]ccc2c1 [Compound 73, 4-(4-{[8-(4-chlorophenyl)spiro[4.5]dec-7-en-7-yl]methyl}piperazin-1-yl)-N-({4-[(4-fluorotetrahydro-2H-pyran-4-yl)methoxy]-3-nitrophenyl}sulfonyl)-2-(1H-pyrrolo[2,3-b]pyridin-5-yloxy)benzamide]	< 0.01 nM
CC1(C)CCC(CN2CCN(c3ccc(C(=O)NS(=O)(=O)c4ccc(NCC5CCC6(CC5)COC6)c([N+](=O)[O-])c4)c(Oc4cnc5[nH]ccc5c4)c3)CC2)=C(c2ccc(Cl)cc2)C1 [Compound 365, 4-(4-{[2-(4-chlorophenyl)-4,4-dimethylcyclohex-1-en-1-yl]methyl}piperazin-1-yl)-N-({3-nitro-4-[(2-oxaspiro[3.5]non-7-ylmethyl)amino]phenyl}sulfonyl)-2-(1H-pyrrolo[2,3-b]pyridin-5-yloxy)benzamide]	< 0.01 nM
CC1(C)CCC(CN2CCN(c3ccc(C(=O)NS(=O)(=O)c4ccc(NCC5CN(C6COC6)CCO5)c(S(=O)(=O)C(F)(F)F)c4)c(Oc4cnc5[nH]ccc5c4)c3)CC2)=C(c2ccc(Cl)cc2)C1 (stereo not shown) [Compound 241, 4-(4-{[2-(4-chlorophenyl)-4,4-dimethylcyclohex-1-en-1-yl]methyl}piperazin-1-yl)-N-({4-({[4-(oxetan-3-yl)morpholin-2-yl]methyl}amino)-3-[(trifluoromethyl)sulfonyl]phenyl}sulfonyl)-2-(1H-pyrrolo[2,3-b]pyridin-5-yloxy)benzamide]	< 0.01 nM
CC1(C)CCC(CN2CCN(c3ccc(C(=O)NS(=O)(=O)c4ccc(OCC5(F)CCN(C6CC6)CC5)c([N+](=O)[O-])c4)c(Oc4cnc5[nH]ccc5c4)c3)CC2)=C(c2ccc(Cl)cc2)C1 [Compound 173, 4-(4-{[2-(4-chlorophenyl)-4,4-dimethylcyclohex-1-en-1-yl]methyl}piperazin-1-yl)-N-({4-[(1-cyclopropyl-4-fluoropiperidin-4-yl)methoxy]-3-nitrophenyl}sulfonyl)-2-(1H-pyrrolo[2,3-b]pyridin-5-yloxy)benzamide]	< 0.01 nM
CC1(C)CCC(CN2CCN(c3ccc(C(=O)NS(=O)(=O)c4ccc(N[C@@H]5CCN(C6CC6)C5)c([N+](=O)[O-])c4)c(Oc4cnc5[nH]ccc5c4)c3)CC2)=C(c2ccc(Cl)cc2)C1 [Compound 144, 4-(4-{[2-(4-chlorophenyl)-4,4-dimethylcyclohex-1-en-1-yl]methyl}piperazin-1-yl)-N-[(4-{[(3R)-1-cyclopropylpyrrolidin-3-yl]amino}-3-nitrophenyl)sulfonyl]-2-(1H-pyrrolo[2,3-b]pyridin-5-yloxy)benzamide]	< 0.01 nM
